This is an account of results in patent EP2638113B1, “THIOPHENE AZO DYES AND LAUNDRY CARE COMPOSITIONS CONTAINING THE SAME” (Milliken & Company, priority 2010, dated 2011).

This series in a line: Aqueous partition value of a dye (water/1-octanol partitioning, absorbance at λmax). It counts as physicochemical. Conditions: Aqueous Partition Value (APV) = (Af/Ai) × 100%, deionized water / 1-octanol, 10.0 mL each. On the procedure:
• I. Method for Determining the Aqueous Partition Value of a Dye Dissolve in deionized water to a final volume of 10.0 mL an amount of dye sufficient to provide a solution absorbance value between 0.25 and 1.0, said absorbance being determined at the dye λmax between 400 nm and 750 nm, using a cuvette with 1.0 cm path length. Measure the absorbance of the sample at the dye λmax in a UV/Vis spectrophotometer, then transfer the entire 10.0 mL solution to a 50.0 mL plastic centrifuge tube. Add 10.0 mL of 1-octanol, cap the tube, and mix vigorously for 30 seconds using a Vortex™ mixer. Leave the tube standing undisturbed until the layers cleanly phase separate. […] Analyze the solution as before, and quantify the absorbance loss at λmax as "% of Dye Remaining in Aqueous Layer" as detailed below: % of Dye Remaining in Aqueous Layer = Aqueous Partition Value (APV) = (Af/Ai) × 100% [formula] wherein Ai is the initial solution absorbance at λmax and Af is the final solution absorbance at λmax. • II. […] After such washing step separately rinse the swatches in tap water and air dry the swatches in the dark. • e.) After rinsing and drying each swatch, the hueing efficiency, DE*eff, of the dye is assessed by determining the L*, a*, and b* value measurements of each swatch using a Hunter LabScan XE reflectance spectrophotometer with D65 illumination, 10° observer and UV filter excluded. […]

Turning to `CCN(CCOCCOCCOCCOCCn1cc[n+](C)c1)c1ccc(/N=N/c2sc(C#N)c(C)c2C#N)c(C)c1` [Example 13], the “% Dye in Water Layer” value was 20%. In the case of `CCN(CCOCCOCCOCCOCC[N+](C)(C)CCCS(=O)(=O)[O-])c1ccc(/N=N/c2sc(C#N)c(C)c2C#N)c(C)c1` [Example 15] it was 3%.
